How the values were obtained:
[1] = biological target: Somatostatin receptor type 1 (Rattus norvegicus, UniProt P28646); assay: Displacement of [125I]SRIF14 from rat sst1 receptor from rat brain cortex membrane
[2] = biological target: Somatostatin receptor type 2 (Rattus norvegicus, UniProt P30680); assay: Displacement of [125I]SRIF14 from rat sst2 receptor from rat brain cortex membrane
[3] = species: Rattus norvegicus; assay: Selectivity for rat sst1 receptor over rat sst2 receptor
[4] = Ratio of drug level in brain to plasma in mouse at 10 mg/kg, po after 1 hr; format: ADME, organism-based; set-up: dose 10 mg/kg, route oral; conditions: brain and plasma, read-out: BPR
[5] = Oral bioavailability in rat at 10 mg/kg; format: ADME, organism-based; conditions: in vivo
[6] = Clearance in rat at 10 mg/kg, po; format: ADME, organism-based; set-up: dose 10 mg/kg, route oral; conditions: in vivo
[7] = test system: Rattus norvegicus; assay: Volume of distribution at steady state in rat at 10 mg/kg, po; format: ADME, organism-based; set-up: dose 10 mg/kg, route oral; conditions: in vivo
[8] = Ratio of drug level in brain to plasma in rat at 10 to 100 mg/kg, po after 90 mins; format: ADME, organism-based; set-up: dose 10-100 mg/kg, route oral; conditions: brain and plasma, read-out: BPR

Sequence of Somatostatin receptor type 2 (P30680 whole entry): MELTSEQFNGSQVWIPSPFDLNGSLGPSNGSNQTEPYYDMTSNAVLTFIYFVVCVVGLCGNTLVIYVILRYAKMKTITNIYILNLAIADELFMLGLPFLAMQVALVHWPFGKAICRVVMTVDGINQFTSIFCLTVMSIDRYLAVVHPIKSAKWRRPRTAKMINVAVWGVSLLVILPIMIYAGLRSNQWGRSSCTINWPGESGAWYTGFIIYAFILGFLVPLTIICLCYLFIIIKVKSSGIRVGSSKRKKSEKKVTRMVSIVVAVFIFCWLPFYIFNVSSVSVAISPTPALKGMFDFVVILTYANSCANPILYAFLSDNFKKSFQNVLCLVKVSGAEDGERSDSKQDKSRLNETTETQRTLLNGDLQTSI
Sequence of Somatostatin receptor type 1 (P28646 whole entry): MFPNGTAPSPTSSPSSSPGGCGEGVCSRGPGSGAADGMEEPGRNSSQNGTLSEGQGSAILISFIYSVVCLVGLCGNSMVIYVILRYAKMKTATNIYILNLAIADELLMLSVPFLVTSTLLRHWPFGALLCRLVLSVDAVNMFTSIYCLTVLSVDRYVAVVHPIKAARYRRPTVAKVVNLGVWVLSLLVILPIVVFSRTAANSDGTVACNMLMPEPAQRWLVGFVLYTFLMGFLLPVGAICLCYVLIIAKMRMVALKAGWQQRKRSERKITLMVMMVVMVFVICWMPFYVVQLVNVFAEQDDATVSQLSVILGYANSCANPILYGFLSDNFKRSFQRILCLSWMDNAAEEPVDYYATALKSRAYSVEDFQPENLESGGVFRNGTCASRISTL

| SMILES | Kd [1] | Kd [2] | also measured |
| --- | --- | --- | --- |
| COc1cccc2c1C[C@H]1C[C@@H](C(=O)N3CCCN(c4ccc([N+](=O)[O-])cc4)CC3)CN(C)[C@@H]1C2 | 263 nM | 22400 nM |  |
| COc1cccc2c1C[C@H]1C[C@@H](C(=O)N3CCN(c4ccccn4)CC3)CN(C)[C@@H]1C2 | 17.4 nM | 10200 nM |  |
| COc1cccc2c1C[C@H]1C[C@@H](C(=O)N3CCN(c4ccc([N+](=O)[O-])cc4C#N)CC3)CN(C)[C@@H]1C2 | 3.24 nM | 4370 nM |  |
| COc1cccc2c1C[C@H]1C[C@@H](C(=O)N3CCN(c4ccc(C(=O)O)cc4)CC3)CN(C)[C@@H]1C2 | 81300 nM | 251000 nM |  |
| O=[As][As+](=O)[O-] (stereo not given) [ARSENIC TRIOXIDE] | 52.5 nM | 25100 nM |  |
| COc1cccc2c1C[C@H]1C[C@@H](C(=O)N3CCN(c4ccc(F)c(F)c4)CC3)CN(C)[C@@H]1C2 | 0.741 nM | 16600 nM | Selectivity ratio [3]: > 22000; Kp at 1 h [4]: 7.5 |
| COc1cccc2c1C[C@H]1C[C@@H](C(=O)N3CCN(c4ccc(S(N)(=O)=O)cc4)CC3)CN(C)[C@@H]1C2 | 589 nM | 9120 nM |  |
| COc1cccc2c1C[C@H]1C[C@@H](C(=O)N3CCN(c4cc5nccnc5cn4)CC3)CN(C)[C@@H]1C2 | 355 nM | 7080 nM |  |
| COc1cccc2c1C[C@H]1C[C@@H](C(=O)N3CCNCC3)CN(C)[C@@H]1C2 | 10500 nM | 43700 nM |  |
| COc1cccc2c1C[C@H]1C[C@@H](C(=O)N3CCN(c4cccc(C(F)(F)F)c4)CC3)CN(C)[C@@H]1C2 | 23.4 nM | 13200 nM |  |
| COC(=O)c1ccc(N2CCN(C(=O)[C@@H]3C[C@@H]4Cc5c(cccc5OC)C[C@H]4N(C)C3)CC2)cc1 | 162 nM | 14800 nM |  |
| COc1cccc2c1C[C@H]1C[C@@H](C(=O)N3CCN(c4ccc(S(C)(=O)=O)cc4)CC3)CN(C)[C@@H]1C2 | 631 nM | 8710 nM |  |
| CCN(CC)C(=O)c1ccc(N2CCN(C(=O)[C@@H]3C[C@@H]4Cc5c(cccc5OC)C[C@H]4N(C)C3)CC2)cc1 | 1700 nM | 20000 nM |  |
| COc1cccc2c1C[C@H]1C[C@@H](C(=O)N3CCN(c4ccncc4)CC3)CN(C)[C@@H]1C2 | 1860 nM | 17800 nM |  |
| COc1cccc2c1C[C@H]1C[C@@H](C(=O)N3CCN(c4cccc5ccc(C#N)cc45)CC3)CN(C)[C@@H]1C2 | 8.71 nM | 5250 nM |  |
| COc1cccc2c1C[C@H]1C[C@@H](C(=O)N3CCN(c4cccc(F)c4C#N)CC3)CN(C)[C@@H]1C2 | 2.82 nM | 16600 nM |  |
| COc1cccc2c1C[C@H]1C[C@@H](C(=O)N3CCN(c4ccc(C(F)(F)F)cc4[N+](=O)[O-])CC3)CN(C)[C@@H]1C2 | 110 nM | 4900 nM |  |
| COc1cccc2c1C[C@H]1C[C@@H](C(=O)N3CCN(c4ccc([N+](=O)[O-])cc4S(C)(=O)=O)CC3)CN(C)[C@@H]1C2 | 1.74 nM | 5250 nM |  |
| COc1cccc2c1C[C@H]1C[C@@H](C(=O)N3CCN(c4ccc([N+](=O)[O-])cc4)CC3)CN(C)[C@@H]1C2 [OBELIN] | 0.708 nM | 7760 nM | Selectivity ratio [3]: > 10000; bioavailability [5]: 35%; CL/F [6]: 5 mL/min; Vdss [7]: 3 L/kg; Kp at 1.5 h [8]: 10 |
| COc1cccc2c1C[C@H]1C[C@@H](C(=O)N3CCN(c4ccc(C(F)(F)F)cc4)CC3)CN(C)[C@@H]1C2 | 275 nM | 5130 nM |  |
| COc1cccc2c1C[C@H]1C[C@@H](C(=O)N3CCN(c4ccc5nsnc5n4)CC3)CN(C)[C@@H]1C2 | 1.23 nM | 5750 nM | Selectivity ratio [3]: > 4600; Kp at 1 h [4]: 1.8 |
| COc1cccc2c1C[C@H]1C[C@@H](C(=O)N3CCN(c4ccc(C(C)=O)cc4)CC3)CN(C)[C@@H]1C2 | 151 nM | 8710 nM |  |
| COc1cccc2c1C[C@H]1C[C@@H](C(=O)N3CCN(c4ncccc4OS(=O)(=O)C(F)(F)F)CC3)CN(C)[C@@H]1C2 | 562 nM | 10500 nM |  |

More lines, main results first:

| Kd [1] | Kd [2] | SMILES | also measured |
| --- | --- | --- | --- |
| 87.1 nM | 5500 nM | COc1cccc2c1C[C@H]1C[C@@H](C(=O)N3CCN(c4cccc5ccccc45)CC3)CN(C)[C@@H]1C2 |  |
| 30.2 nM | 2340 nM | COc1cccc2c1C[C@H]1C[C@@H](C(=O)N3CC=C(c4ccccn4)CC3)CN(C)[C@@H]1C2 |  |
| 8.13 nM | 10000 nM | COc1cccc2c1C[C@H]1C[C@@H](C(=O)N3CCN(c4ccc(C#N)cc4)CC3)CN(C)[C@@H]1C2 |  |
| 3.31 nM | 21400 nM | COc1cccc2c1C[C@H]1C[C@@H](C(=O)N3CCN(c4cccc(F)c4)CC3)CN(C)[C@@H]1C2 |  |
| 105 nM | 6610 nM | COc1cccc2c1C[C@H]1C[C@@H](C(=O)N3CCN(c4cccc(OCc5ccccc5)n4)CC3)CN(C)[C@@H]1C2 |  |
| 3.55 nM | 10200 nM | COc1cccc2c1C[C@H]1C[C@@H](C(=O)N3CCN(c4ccc(C#N)cn4)CC3)CN(C)[C@@H]1C2 |  |
| 288 nM | 5500 nM | COc1cccc2c1C[C@H]1C[C@@H](C(=O)N3CCN(c4cc5ccccc5cn4)CC3)CN(C)[C@@H]1C2 |  |
| 692 nM | 5250 nM | COc1cccc2c1C[C@H]1C[C@@H](C(=O)N3CCN(c4cc(C)nc5ccccc45)CC3)CN(C)[C@@H]1C2 |  |
| 17.8 nM | 18600 nM | COc1cccc2c1C[C@H]1C[C@@H](C(=O)N3CCN(c4ccccc4F)CC3)CN(C)[C@@H]1C2 |  |
| 1.32 nM | 6760 nM | COc1cccc2c1C[C@H]1C[C@@H](C(=O)N3CCN(c4cccc([N+](=O)[O-])c4)CC3)CN(C)[C@@H]1C2 |  |
| 1510 nM | 16600 nM | COc1cccc2c1C[C@H]1C[C@@H](C(=O)N3CCN(c4ccc(C(N)=O)cc4)CC3)CN(C)[C@@H]1C2 |  |
| 10.7 nM | 4270 nM | COc1cccc2c1C[C@H]1C[C@@H](C(=O)N3CCN(c4ccc5nsnc5c4)CC3)CN(C)[C@@H]1C2 | Kp at 1 h [4]: 4.8 |
| 87.1 nM | 20900 nM | COc1cccc2c1C[C@H]1C[C@@H](C(=O)N3CCN(c4ccc5nccn5n4)CC3)CN(C)[C@@H]1C2 |  |
| 1.7 nM | 3470 nM | COc1cccc2c1C[C@H]1C[C@@H](C(=O)N3CCN(c4ccc5nonc5c4)CC3)CN(C)[C@@H]1C2 |  |
| 1.29 nM | 11000 nM | COc1cccc2c1C[C@H]1C[C@@H](C(=O)N3CCN(c4ccccc4[N+](=O)[O-])CC3)CN(C)[C@@H]1C2 |  |
| 209 nM | 34700 nM | COc1cccc2c1C[C@H]1C[C@@H](C(=O)N3CCCN(c4ccccn4)CC3)CN(C)[C@@H]1C2 |  |

| Kd [1] | Kd [2] | SMILES | also measured |
| --- | --- | --- | --- |
| 457 nM | 9120 nM | COc1cccc2c1C[C@H]1C[C@@H](C(=O)N3CCN(Cc4ccccc4)CC3)CN(C)[C@@H]1C2 |  |
| 468 nM | 27500 nM | COc1cccc2c1C[C@H]1C[C@@H](C(=O)N3CCN(c4ncccn4)CC3)CN(C)[C@@H]1C2 |  |
| 490 nM | 2400 nM | COc1cccc2c1C[C@H]1C[C@@H](C(=O)N3CC=C(c4ncccn4)CC3)CN(C)[C@@H]1C2 |  |
| 27.5 nM | 2090 nM | COc1cccc2c1C[C@H]1C[C@@H](C(=O)N3CCN(c4ccc5ccccc5n4)CC3)CN(C)[C@@H]1C2 |  |
| 2.75 nM | 10000 nM | COc1cccc2c1C[C@H]1C[C@@H](C(=O)N3CCN(c4cccc5nsnc45)CC3)CN(C)[C@@H]1C2 |  |
| 1.82 nM | 11000 nM | COc1cccc2c1C[C@H]1C[C@@H](C(=O)N3CCN(c4cccc(=O)n4C)CC3)CN(C)[C@@H]1C2 |  |
| 3.63 nM | 3630 nM | COc1cccc2c1C[C@H]1C[C@@H](C(=O)N3CCN(c4cccc5nonc45)CC3)CN(C)[C@@H]1C2 |  |
| 105 nM | 20000 nM | COc1cccc2c1C[C@H]1C[C@@H](C(=O)N3CCN(c4ccc(C(F)(F)F)cn4)CC3)CN(C)[C@@H]1C2 |  |
| 490 nM | 2040 nM | COc1cccc2c1C[C@H]1C[C@@H](C(=O)N3CCC(n4c(=O)[nH]c5ccccc54)CC3)CN(C)[C@@H]1C2 |  |
| 631 nM | 24500 nM | COc1cccc2c1C[C@H]1C[C@@H](C(=O)N3CCN(c4ccc(O)cc4)CC3)CN(C)[C@@H]1C2 |  |
| 7.59 nM | 11700 nM | COc1cccc2c1C[C@H]1C[C@@H](C(=O)N3CCN(c4cccc(=O)[nH]4)CC3)CN(C)[C@@H]1C2 |  |
| 81.3 nM | 2510 nM | COc1cccc2c1C[C@H]1C[C@@H](C(=O)N3CC=C(c4ccc(Cl)cc4)CC3)CN(C)[C@@H]1C2 |  |
| 3.39 nM | 26300 nM | COc1cccc2c1C[C@H]1C[C@@H](C(=O)N3CCN(c4ccc(F)cc4)CC3)CN(C)[C@@H]1C2 |  |
| 5.75 nM | 14100 nM | COc1cccc2c1C[C@H]1C[C@@H](C(=O)N3CCN(c4ccc5nccnc5n4)CC3)CN(C)[C@@H]1C2 |  |
| 70.8 nM | 6170 nM | COc1cccc2c1C[C@H]1C[C@@H](C(=O)N3CCc4c([nH]c5ccccc45)C3)CN(C)[C@@H]1C2 |  |
| 2 nM | 7410 nM | COc1cccc2c1C[C@H]1C[C@@H](C(=O)N3CCN(c4ccccc4C#N)CC3)CN(C)[C@@H]1C2 |  |
